Key:
Type in all cases: functional
[1] = Cytotoxicity against human SF268 cells assessed as growth inhibition at 10 uM after 48 hrs by SRB assay; conditions: SF-268, 48 h, read-out: GI
MDA-MB-231 = experiment: Cytotoxicity against human MDA-MB-231 cells assessed as growth inhibition at 10 uM after 48 hrs by SRB assay; conditions: MDA-MB-231, 48 h, read-out: GI
CCRF-CEM = experiment: Cytotoxicity against human CCRF-CEM cells assessed as growth inhibition at 10 uM after 48 hrs by SRB assay; conditions: read-out: GI
786-0 = experiment: Cytotoxicity against human 786-0 cells assessed as growth inhibition at 10 uM after 48 hrs by SRB assay; conditions: 786-0, 48 h, read-out: GI
[2] = Cytotoxicity against human LOXIMVI cells assessed as growth inhibition at 10 uM after 48 hrs by SRB assay; conditions: LOX IMVI, read-out: GI
KM12 = experiment: Cytotoxicity against human KM12 cells assessed as growth inhibition at 10 uM after 48 hrs by SRB assay; conditions: KM12, 48 h, read-out: GI
[3] = Cytotoxicity against human PC3 cells assessed as growth inhibition at 10 uM after 48 hrs by SRB assay; conditions: PC-3, 48 h, read-out: GI
[4] = Cytotoxicity against human RPMI8226 cells assessed as growth inhibition at 10 uM after 48 hrs by SRB assay; conditions: RPMI-8226, 48 h, read-out: GI
SK-MEL-2 = experiment: Cytotoxicity against human SK-MEL-2 cells assessed as growth inhibition at 10 uM after 48 hrs by SRB assay; conditions: SK-MEL-2, 48 h, read-out: GI
SK-MEL-5 = experiment: Cytotoxicity against human SK-MEL-5 cells assessed as growth inhibition at 10 uM after 48 hrs by SRB assay; conditions: SK-MEL-5, 48 h, read-out: GI
[5] = Cytotoxicity against human HL-60(TB) cells assessed as growth inhibition at 10 uM after 48 hrs by SRB assay; conditions: HL-60, 48 h, read-out: GI
[6] = Cytotoxicity against human OVCAR4 cells assessed as growth inhibition at 10 uM after 48 hrs by SRB assay; conditions: OVCAR-4, 48 h, read-out: GI
[7] = Cytotoxicity against human UACC62 cells assessed as growth inhibition at 10 uM after 48 hrs by SRB assay; conditions: UACC-62, 48 h, read-out: GI
[8] = Cytotoxicity against human NCI-ADR-RES cells assessed as growth inhibition at 10 uM after 48 hrs by SRB assay; conditions: read-out: GI
[9] = Cytotoxicity against human MOLT4 cells assessed as growth inhibition at 10 uM after 48 hrs by SRB assay; conditions: MOLT-4, 48 h, read-out: GI
[10] = Cytotoxicity against human UO31 cells assessed as growth inhibition at 10 uM after 48 hrs by SRB assay; conditions: UO-31, 48 h, read-out: GI
[11] = Cytotoxicity against human RXF393 cells assessed as growth inhibition at 10 uM after 48 hrs by SRB assay; conditions: RXF 393, 48 h, read-out: GI
MDA-MB-435 = experiment: Cytotoxicity against human MDA-MB-435 cells assessed as growth inhibition at 10 uM after 48 hrs by SRB assay; conditions: MDA-MB-435, 48 h, read-out: GI
[12] = Cytotoxicity against human BT549 cells assessed as growth inhibition at 10 uM after 48 hrs by SRB assay; conditions: BT-549, 48 h, read-out: GI
A498 = experiment: Cytotoxicity against human A498 cells assessed as growth inhibition at 10 uM after 48 hrs by SRB assay; conditions: A498, 48 h, read-out: GI
MDA-MB-468 = experiment: Cytotoxicity against human MDA-MB-468 cells assessed as growth inhibition at 10 uM after 48 hrs by SRB assay; conditions: MDA-MB-468, 48 h, read-out: GI
A549 = experiment: Cytotoxicity against human A549 cells assessed as growth inhibition at 10 uM after 48 hrs by SRB assay; conditions: A549, 48 h, read-out: GI
[13] = Cytotoxicity against human UACC257 cells assessed as growth inhibition at 10 uM after 48 hrs by SRB assay; conditions: UACC-257, 48 h, read-out: GI
K562 = experiment: Cytotoxicity against human K562 cells assessed as growth inhibition at 10 uM after 48 hrs by SRB assay; conditions: K562, 48 h, read-out: GI
NCI-H522 = experiment: Cytotoxicity against human NCI-H522 cells assessed as growth inhibition at 10 uM after 48 hrs by SRB assay; conditions: NCI-H522, 48 h, read-out: GI
[14] = Cytotoxicity against human OVCAR8 cells assessed as growth inhibition at 10 uM after 48 hrs by SRB assay; conditions: OVCAR-8, 48 h, read-out: GI
[15] = Cytotoxicity against human Caki1 cells assessed as growth inhibition at 10 uM after 48 hrs by SRB assay; conditions: CAKI-1, 48 h, read-out: GI
[16] = Cytotoxicity against human SNB75 cells assessed as growth inhibition at 10 uM after 48 hrs by SRB assay; conditions: SNB-75, 48 h, read-out: GI
[17] = Cytotoxicity against human SW620 cells assessed as growth inhibition at 10 uM after 48 hrs by SRB assay; conditions: SW-620, 48 h, read-out: GI
[18] = Cytotoxicity against human HCT116 cells assessed as growth inhibition at 10 uM after 48 hrs by SRB assay; conditions: HCT-116, 48 h, read-out: GI
Malme-3M = experiment: Cytotoxicity against human MALME-3M cells assessed as growth inhibition at 10 uM after 48 hrs by SRB assay; conditions: read-out: GI
SK-MEL-28 = experiment: Cytotoxicity against human SK-MEL-28 cells assessed as growth inhibition at 10 uM after 48 hrs by SRB assay; conditions: SK-MEL-28, 48 h, read-out: GI
NCI-H23 = experiment: Cytotoxicity against human NCI-H23 cells assessed as growth inhibition at 10 uM after 48 hrs by SRB assay; conditions: NCI-H23, 48 h, read-out: GI
[19] = Cytotoxicity against human OVCAR1 cells assessed as growth inhibition at 10 uM after 48 hrs by SRB assay; conditions: OVCAR1, 48 h, read-out: GI
[20] = Cytotoxicity against human HOP92 cells assessed as growth inhibition at 10 uM after 48 hrs by SRB assay; conditions: HOP-92, 48 h, read-out: GI
NCI-H226 = experiment: Cytotoxicity against human NCI-H226 cells assessed as growth inhibition at 10 uM after 48 hrs by SRB assay; conditions: NCI-H226, 48 h, read-out: GI
M14 = experiment: Cytotoxicity against human M14 cells assessed as growth inhibition at 10 uM after 48 hrs by SRB assay; conditions: M14, 48 h, read-out: GI
[21] = Cytotoxicity against human OVCAR3 cells assessed as growth inhibition at 10 uM after 48 hrs by SRB assay; conditions: OVCAR-3, 48 h, read-out: GI
[22] = Cytotoxicity against human SNB19 cells assessed as growth inhibition at 10 uM after 48 hrs by SRB assay; conditions: SNB-19, 48 h, read-out: GI
T47D = experiment: Cytotoxicity against human T47D cells assessed as growth inhibition at 10 uM after 48 hrs by SRB assay; conditions: read-out: GI
[23] = Cytotoxicity against human HCT15 cells assessed as growth inhibition at 10 uM after 48 hrs by SRB assay; conditions: HCT-15, 48 h, read-out: GI
ACHN = experiment: Cytotoxicity against human ACHN cells assessed as growth inhibition at 10 uM after 48 hrs by SRB assay; conditions: read-out: GI
SR = experiment: Cytotoxicity against human SR cells assessed as growth inhibition at 10 uM after 48 hrs by SRB assay; conditions: read-out: GI
[24] = Cytotoxicity against human IGROV1 cells assessed as growth inhibition at 10 uM after 48 hrs by SRB assay; conditions: IGROV-1, 48 h, read-out: GI
SN12C = experiment: Cytotoxicity against human SN12C cells assessed as growth inhibition at 10 uM after 48 hrs by SRB assay; conditions: read-out: GI
[25] = Cytotoxicity against human SKOV3 cells assessed as growth inhibition at 10 uM after 48 hrs by SRB assay; conditions: SK-OV-3, 48 h, read-out: GI
[26] = Cytotoxicity against human SF295 cells assessed as growth inhibition at 10 uM after 48 hrs by SRB assay; conditions: SF-295, 48 h, read-out: GI
[27] = Cytotoxicity against human OVCAR5 cells assessed as growth inhibition at 10 uM after 48 hrs by SRB assay; conditions: OVCAR-5, 48 h, read-out: GI
[28] = Cytotoxicity against human Hs 578T cells assessed as growth inhibition at 10 uM after 48 hrs by SRB assay; conditions: read-out: GI
EKVX = experiment: Cytotoxicity against human EKVX cells assessed as growth inhibition at 10 uM after 48 hrs by SRB assay; conditions: read-out: GI
[29] = Cytotoxicity against human NCI-H322 cells assessed as growth inhibition at 10 uM after 48 hrs by SRB assay; conditions: NCI-H322, 48 h, read-out: GI
MCF7 = experiment: Cytotoxicity against human MCF7 cells assessed as growth inhibition at 10 uM after 48 hrs by SRB assay; conditions: MCF7, 48 h, read-out: GI
U-251 = experiment: Cytotoxicity against human U251 cells assessed as growth inhibition at 10 uM after 48 hrs by SRB assay; conditions: U-251, 48 h, read-out: GI

SMILES: COc1cc(NC(=O)CSc2nc3ccc(C)cc3c(=O)n2-c2ccccc2)cc(OC)c1OC
- inhibition of growth at 10 µM [1]: 14%
- inhibition of growth at 10 µM (MDA-MB-231): 23%
- inhibition of growth at 10 µM (CCRF-CEM): 17%
- inhibition of growth at 10 µM (786-0): 11%
- inhibition of growth at 10 µM [2]: 25%
- inhibition of growth at 10 µM (KM12): 25%
- inhibition of growth at 10 µM [3]: 18%
- inhibition of growth at 10 µM [4]: 24%
- inhibition of growth at 10 µM (SK-MEL-2): 14%
- inhibition of growth at 10 µM (SK-MEL-5): 23%
- inhibition of growth at 10 µM [5]: 11%
- inhibition of growth at 10 µM [6]: 32%
- inhibition of growth at 10 µM [7]: 23%
- inhibition of growth at 10 µM [8]: 25%
- inhibition of growth at 10 µM [9]: 41%
- inhibition of growth at 10 µM [10]: 49%
- inhibition of growth at 10 µM [11]: 14%
- inhibition of growth at 10 µM (MDA-MB-435): 53%
- inhibition of growth at 10 µM [12]: 21%
- inhibition of growth at 10 µM (A498): 38%
- inhibition of growth at 10 µM (MDA-MB-468): 31%
- inhibition of growth at 10 µM (A549): 17%
- inhibition of growth at 10 µM [13]: 18%
- inhibition of growth at 10 µM (K562): 13%
- inhibition of growth at 10 µM (NCI-H522): 32%
- inhibition of growth at 10 µM [14]: 13%
- inhibition of growth at 10 µM [15]: 12%
- inhibition of growth at 10 µM [16]: 43%
- inhibition of growth at 10 µM [17]: 13%
- inhibition of growth at 10 µM [18]: 13%
- inhibition of growth at 10 µM (Malme-3M): 10%
- inhibition of growth at 10 µM (SK-MEL-28): 17%
- inhibition of growth at 10 µM (NCI-H23): 16%
- inhibition of growth at 10 µM [19]: 11%
- inhibition of growth at 10 µM [20]: 51%
- inhibition of growth at 10 µM (NCI-H226): 18%
- inhibition of growth at 10 µM (M14): 21%
- inhibition of growth at 10 µM [21]: 16%
- inhibition of growth at 10 µM [22]: 13%
- inhibition of growth at 10 µM (T47D): 19%
- inhibition of growth at 10 µM [23]: 19%
- inhibition of growth at 10 µM (ACHN): 10%
- inhibition of growth at 10 µM (SR): 58%

SMILES: COc1cc(NC(=O)CSc2nc3ccc(Cl)cc3c(=O)n2-c2ccc(F)cc2)cc(OC)c1OC
- inhibition of growth at 10 µM [1]: 21%
- inhibition of growth at 10 µM [24]: 14%
- inhibition of growth at 10 µM (MDA-MB-231): 34%
- inhibition of growth at 10 µM (SN12C): 22%
- inhibition of growth at 10 µM [25]: 13%
- inhibition of growth at 10 µM (786-0): 25%
- inhibition of growth at 10 µM [2]: 27%
- inhibition of growth at 10 µM (KM12): 15%
- inhibition of growth at 10 µM [3]: 27%
- inhibition of growth at 10 µM [4]: 61%
- inhibition of growth at 10 µM [26]: 20%
- inhibition of growth at 10 µM (SK-MEL-5): 27%
- inhibition of growth at 10 µM [6]: 23%
- inhibition of growth at 10 µM [7]: 29%
- inhibition of growth at 10 µM [27]: 12%
- inhibition of growth at 10 µM [8]: 19%
- inhibition of growth at 10 µM [9]: 39%
- inhibition of growth at 10 µM [10]: 60%
- inhibition of growth at 10 µM [11]: 20%
- inhibition of growth at 10 µM (MDA-MB-435): 10%
- inhibition of growth at 10 µM (A498): 66%
- inhibition of growth at 10 µM (A549): 17%
- inhibition of growth at 10 µM (K562): 20%
- inhibition of growth at 10 µM (NCI-H522): 21%
- inhibition of growth at 10 µM [14]: 12%
- inhibition of growth at 10 µM [28]: 26%
- inhibition of growth at 10 µM (EKVX): 33%
- inhibition of growth at 10 µM [15]: 29%
- inhibition of growth at 10 µM [16]: 28%
- inhibition of growth at 10 µM [29]: 14%
- inhibition of growth at 10 µM (MCF7): 13%
- inhibition of growth at 10 µM [18]: 21%
- inhibition of growth at 10 µM (Malme-3M): 15%
- inhibition of growth at 10 µM (NCI-H23): 15%
- inhibition of growth at 10 µM [20]: 64%
- inhibition of growth at 10 µM (NCI-H226): 17%
- inhibition of growth at 10 µM (M14): 16%
- inhibition of growth at 10 µM [21]: 20%
- inhibition of growth at 10 µM [22]: 18%
- inhibition of growth at 10 µM (T47D): 28%
- inhibition of growth at 10 µM (U-251): 18%
- inhibition of growth at 10 µM [23]: 16%
- inhibition of growth at 10 µM (ACHN): 15%

— ChEMBL document CHEMBL3784933, “Synthesis and antitumor evaluation of trimethoxyanilides based on 4(3H)-quinazolinone scaffolds” (2016)
